According to patent publication US20260042731A1, “(2,4-DICHLOROPHENOXY)ACETIC ACID ANALOGS” (CORTEVA AGRISCIENCE LLC, priority 2022, published 2026):
Read-outs that look alike come from different tables or passages of the source.

What was measured:
[1] = tested on: Ambrosia artemisiifolia (AMBEL), common ragweed; experiment: Postemergence herbicide evaluation, growth of Ambrosia artemisiifolia (AMBEL); format: in vivo; settings: Ambrosia artemisiifolia, post-emergence, percent reduction in plant size relative to untreated control, read-out: AVE. AMBEL; for pest or weed control at 280 g/ha: 280 g ae/ha; for pest or weed control at 560 g/ha: 560 g ae/ha
[2] = tested on: glyphosate resistant Conyza canadensis (L.) (ERICA), horseweed; experiment: Postemergence herbicide evaluation, growth of Conyza canadensis (ERICA); format: in vivo; settings: Erigeron canadensis, post-emergence, percent reduction in plant size relative to untreated control, read-out: Ave. ERICA; for pest or weed control at 280 g/ha: 280 g ae/ha; for pest or weed control at 560 g/ha: 560 g ae/ha
[3] = tested on: Chenopodium album (CHEAL), common lambsquarters; experiment: Postemergence herbicide evaluation, growth of Chenopodium album (CHEAL); format: in vivo; settings: Chenopodium album, post-emergence, percent reduction in plant size relative to untreated control, read-out: Ave. CHEAL; for pest or weed control at 280 g/ha: 280 g ae/ha; for pest or weed control at 560 g/ha: 560 g ae/ha
[4] = tested on: Amaranthus rudis (AMATA), tall water hemp; experiment: Postemergence herbicide evaluation, growth of Amaranthus rudis (AMATA); format: in vivo; settings: Amaranthus tuberculatus, post-emergence, percent reduction in plant size relative to untreated control, read-out: Ave. AMATA; for pest or weed control at 280 g/ha: 280 g ae/ha; for pest or weed control at 560 g/ha: 560 g ae/ha
[5] = Volatility of compounds measured by thermogravimetric analysis (TGA); format: physicochemical
[6] = tested on: weeds (ABUTH, AMATA, AMBEL, CHEAL, ERICA); experiment: Postemergence herbicide evaluation, overall average % weed control across ABUTH, AMATA, AMBEL, CHEAL, ERICA; format: in vivo; settings: post-emergence, average over the five weeds, read-out: Overall Ave % Weed Control; for pest or weed control at 280 g/ha: 280 g ae/ha; for pest or weed control at 560 g/ha: 560 g ae/ha
[7] = tested on: Abutilon theophrasti (ABUTH), velvetleaf; experiment: Postemergence herbicide evaluation, growth of Abutilon theophrasti (ABUTH); format: in vivo; settings: Abutilon theophrasti, post-emergence, percent reduction in plant size relative to untreated control, read-out: AVE. ABUTH; for pest or weed control at 280 g/ha: 280 g ae/ha; for pest or weed control at 560 g/ha: 560 g ae/ha

Structure (SMILES) | pest or weed control at 280 g/ha ([1]; 168 h, 7 DAA) [%] | pest or weed control at 560 g/ha ([1]; 168 h, 7 DAA) [%] | pest or weed control at 280 g/ha ([1]; 336 h, 14 DAA) [%] | pest or weed control at 560 g/ha ([1]; 336 h, 14 DAA) [%] | pest or weed control at 280 g/ha ([1]; 504 h, 21 DAA) [%] | pest or weed control at 560 g/ha ([1]; 504 h, 21 DAA) [%] | pest or weed control at 280 g/ha ([2]; 168 h, 7 DAA) [%] | pest or weed control at 560 g/ha ([2]; 168 h, 7 DAA) [%] | pest or weed control at 280 g/ha ([2]; 336 h, 14 DAA) [%] | pest or weed control at 560 g/ha ([2]; 336 h, 14 DAA) [%] | pest or weed control at 280 g/ha ([2]; 504 h, 21 DAA) [%] | pest or weed control at 560 g/ha ([2]; 504 h, 21 DAA) [%] | pest or weed control at 280 g/ha ([3]; 168 h, 7 DAA) [%] | pest or weed control at 560 g/ha ([3]; 168 h, 7 DAA) [%] | pest or weed control at 280 g/ha ([3]; 336 h, 14 DAA) [%] | pest or weed control at 560 g/ha ([3]; 336 h, 14 DAA) [%] | pest or weed control at 280 g/ha ([3]; 504 h, 21 DAA) [%] | pest or weed control at 560 g/ha ([3]; 504 h, 21 DAA) [%] | pest or weed control at 280 g/ha ([4]; 168 h, 7 DAA) [%] | pest or weed control at 560 g/ha ([4]; 168 h, 7 DAA) [%] | also measured
O=C(COc1ccc(Cl)cc1Cl)NOc1ccccc1 [Compound D7] | 63 | 73 | 83 | 89 | 95 | 97 | 63 | 63 | 83 | 85 | 95 | 95 | 65 | 68 | 70 | 75 | 70 | 78 | 73 | 80 | pest or weed control at 280 g/ha ([4]; 336 h, 14 DAA): 83%; pest or weed control at 560 g/ha ([4]; 336 h, 14 DAA): 90%; pest or weed control at 280 g/ha ([4]; 504 h, 21 DAA): 83%; pest or weed control at 560 g/ha ([4]; 504 h, 21 DAA): 83%; TGA Data (rate of weight loss, volatility) [5]: 0.2 µg/min; pest or weed control at 280 g/ha ([6]; 168 h, 7 DAA): 66%; pest or weed control at 560 g/ha ([6]; 168 h, 7 DAA): 73%; pest or weed control at 280 g/ha ([6]; 336 h, 14 DAA): 77%; pest or weed control at 560 g/ha ([6]; 336 h, 14 DAA): 85%; pest or weed control at 280 g/ha ([6]; 504 h, 21 DAA): 82%; pest or weed control at 560 g/ha ([6]; 504 h, 21 DAA): 89%; pest or weed control at 280 g/ha ([7]; 168 h, 7 DAA): 68%; pest or weed control at 560 g/ha ([7]; 168 h, 7 DAA): 80%; pest or weed control at 280 g/ha ([7]; 336 h, 14 DAA): 68%; pest or weed control at 560 g/ha ([7]; 336 h, 14 DAA): 85%; pest or weed control at 280 g/ha ([7]; 504 h, 21 DAA): 70%; pest or weed control at 560 g/ha ([7]; 504 h, 21 DAA): 92%
CN(NC(=O)COc1ccc(Cl)cc1Cl)C(=O)c1ccccc1 [Compound D9, N′-(2-(2,4-Dichlorophenoxy)acetyl)-N-methylbenzohydrazide] | 60 | 73 | 83 | 94 | 85 | 99 | 65 | 68 | 83 | 88 | 94 | 65 | 65 | 65 | 73 | 78 | 95 | 90 | 65 | 68 | pest or weed control at 280 g/ha ([4]; 336 h, 14 DAA): 75%; pest or weed control at 560 g/ha ([4]; 336 h, 14 DAA): 70%; pest or weed control at 280 g/ha ([4]; 504 h, 21 DAA): 83%; pest or weed control at 560 g/ha ([4]; 504 h, 21 DAA): 73%; TGA Data (rate of weight loss, volatility) [5]: 0.2 µg/min; pest or weed control at 280 g/ha ([6]; 168 h, 7 DAA): 60%; pest or weed control at 560 g/ha ([6]; 168 h, 7 DAA): 63%; pest or weed control at 280 g/ha ([6]; 336 h, 14 DAA): 72%; pest or weed control at 560 g/ha ([6]; 336 h, 14 DAA): 75%; pest or weed control at 280 g/ha ([6]; 504 h, 21 DAA): 80%; pest or weed control at 560 g/ha ([6]; 504 h, 21 DAA): 75%; pest or weed control at 280 g/ha ([7]; 168 h, 7 DAA): 43%; pest or weed control at 560 g/ha ([7]; 168 h, 7 DAA): 43%; pest or weed control at 280 g/ha ([7]; 336 h, 14 DAA): 45%; pest or weed control at 560 g/ha ([7]; 336 h, 14 DAA): 48%; pest or weed control at 280 g/ha ([7]; 504 h, 21 DAA): 45%; pest or weed control at 560 g/ha ([7]; 504 h, 21 DAA): 50%
